PubChem BioAssay AID651973 (The Scripps Research Institute Molecular Screening Center, 2013)
The source made the active and inactive calls. How the calls were made is not given here.

What follows are molecules tested on Cell-based VP16 transactivation luciferase reporter, luminescence (assay: VP16 transactivation reporter inhibitors, dose response, counter-screen for LRH-1 inverse agonist project, cell-based, luminescence (AID 651973)).

SMILES	IC50
Cc1c(NC(=S)NC(=O)c2ccc(Cl)cc2)c(=O)n(-c2ccccc2)n1C	> 35.9 µM (inactive)
O=C(COC(=O)c1ccc(=O)n(Cc2ccccc2)n1)Nc1ccc2c(c1)OCCO2	> 35.9 µM (inactive)
CCOC(=O)c1cc2sccc2n1CC(=O)Nc1ccc2c(c1)OCCO2	> 35.9 µM (inactive)
COc1ccc(CCNC(=O)COC(=O)c2cccn2C)cc1	> 35.9 µM (inactive)
COc1cc(/C=N/NC(N)=S)ccc1OCC(=O)Nc1ccc(C)cc1	> 35.9 µM (inactive)
O=C(Nc1nc2c(Cl)cccc2s1)c1ccc([N+](=O)[O-])o1	> 35.9 µM (inactive)
COc1ccc(NC(=O)COC(=O)c2c(-c3ccccc3)noc2C)cc1	> 35.9 µM (inactive)
CCCOc1ccc(NC(=O)CC2C(=O)N(C)C(=S)N2Cc2ccc3c(c2)OCO3)cc1 (stereo not given)	8.7 µM
CCOc1ccc(NC(=O)CSc2nccn(-c3ccc4c(c3)OCCO4)c2=O)cc1	> 35.9 µM (inactive)
O=C(CSc1nnc(CNC(=O)c2ccccc2F)o1)Nc1ccc2c(c1)OCCO2	> 35.9 µM (inactive)
